Experimental data published in paper PMC3909258, “Tannins from Hamamelis virginiana Bark Extract: Characterization and Improvement of the Antiviral Efficacy against Influenza A Virus and Human Papillomavirus” (PLoS ONE, 2014).
“And” between values parts separate entries of the source, which are not always exact repeats. Equal values may be shown once.

Columns and labels:
[1] = system: H1N1 A/Puerto Rico/8/34-NS116-GFP; assay: Antiviral effect against GFP reporter virus on A549 cells; conditions: for EC50: Influenza A virus, H1N1, A549, 24 h; for SI (CC50/EC50): CC50 A549 XTT / EC50 reporter virus
[2] = XTT cytotoxicity assay on A549 cells; conditions: human
[3] = Tannin depletion with hide powder, phenols by Folin-Ciocalteu; conditions: pyrogallol equivalents normalized to untreated sample
[4] = system: pandemic H1N1 A/Lux/46/2009; type: cell-based, influenza A virus
[5] = in vitro; conditions: human

SMILES	EC50 [1]	CC50 at 24 h [2]	Remaining phenol content after hide powder treatment [3]	Lower viral titer after virus preincubation [4] [fold]	SI (CC50/EC50) [1]	CC50 at 24 h [5]	SI (CC50/EC50) ([1]; listed as pentagalloylglucose)
O=C(OC[C@H]1OC(O)[C@@](O)(COC(=O)c2cc(O)c(O)c(O)c2)[C@@H]1O)c1cc(O)c(O)c(O)c1 (some centres unmarked) [Hamamelitannin, hamamelitannin]	> 10 mM	–	–	–	–	–	–
O=C(O)c1cc(O)c(O)c(O)c1 [Gallic acid, Gallic acid monohydrate]	50.8 µM and 9.6 µg/mL	770 µM and 145 µg/mL	89 % of untreated	–	–	–	–
O=C(O[C@@H]1Cc2c(O)cc(O)cc2O[C@@H]1c1cc(O)c(O)c(O)c1)c1cc(O)c(O)c(O)c1 [EGCG, (−)-epigallocatechin gallate]	12.1 µM and 5.6 µg/mL	–	intermediate reduction	~7	85	1.03 mM and 472 µg/mL	–
O=C(OC[C@H]1O[C@@H](OC(=O)c2cc(O)c(O)c(O)c2)[C@H](OC(=O)c2cc(O)c(O)c(O)c2)[C@@H](OC(=O)c2cc(O)c(O)c(O)c2)[C@@H]1OC(=O)c1cc(O)c(O)c(O)c1)c1cc(O)c(O)c(O)c1 [Pentagalloylglucose, penta-O-galloyl-β-D-glucose]	19.5 µM and 18.3 µg/mL	779 µM and 733 µg/mL	–	–	40.0	–	40
O=C(OC[C@H]1O[C@@H](OC(=O)c2cc(O)c(O)c(OC(=O)c3cc(O)c(O)c(O)c3)c2)[C@H](OC(=O)c2cc(O)c(O)c(OC(=O)c3cc(O)c(O)c(O)c3)c2)[C@@H](OC(=O)c2cc(O)c(O)c(OC(=O)c3cc(O)c(O)c(O)c3)c2)[C@@H]1OC(=O)c1cc(O)c(O)c(OC(=O)c2cc(O)c(O)c(O)c2)c1)c1cc(O)c(O)c(OC(=O)c2cc(O)c(O)c(O)c2)c1 [Tannic acid, tannic acid]	–	–	–	–	30.7	–	–
